Assay [1] deals with 5HT2B (Homo sapiens, UniProt P41595). Nature of the assay: Competitive radioligand binding, 5HT2B. The arrangement: expressed in transfected cells; host or cells: CHO (membrane fraction). As to conditions: CHO membranes, 3H-5-HT 4 nM; read-out: pIC50 5HT2B (converted). The method, then:
(§1) Competitive radioligand binding assays were used to determine the affinity of the test compounds for a particular receptor. Various concentrations of the non-labelled test compound were added to the incubation mixture with the membrane fraction, containing the receptor of interest, and a fixed low concentration (nM) of the radioligand. During the incubation the radioligand bound to the receptor, but this was inhibited by the non-labelled test compound in proportion to its binding affinity and concentration.
(§2) Cell lines were established that stably express the human variant of the receptor under investigation after transfection with the appropriate cDNA (Table 1). Transfected cells were grown under standard culture conditions, and membrane fractions were obtained upon centrifugation and homogenisation of the cells. Optimal membrane dilutions for binding studies were determined and aliquots were stored at −70° C. until use. In a 96-well plate format, the appropriate radioligand was added to the membrane preparation containing the receptor under investigation. Compound solutions were prepared in DMSO, and diluted 100-fold into the multiwell plate to a final test concentration of 10^−9 to 10^−5 M. After incubation with the test compound, the unbound radioligand was removed by filtration on G/F filters with a Filtermate 96. Microscint™ was added to the washed filter plates and the radioactivity bound to the receptor was measured by liquid scintillation counting in a TopCount (Packard). To measure the Non-Specific Binding (NSB), a high concentration of the non-radiolabeled ligand was added to wells containing the membrane fraction and the radioligand.
(§3) From this, the pIC50 value (inhibitory concentration causing 50% displacement of specific binding) was determined, as well as an estimate of the slope of the plot (Hill coefficient).

The target of assay [2] is T1, 5HT2C (Homo sapiens, UniProt P28335).
T1 construct: expressed in transfected cells; host or cells: CHO (membrane fraction)
T1 sequence (P28335 33-458): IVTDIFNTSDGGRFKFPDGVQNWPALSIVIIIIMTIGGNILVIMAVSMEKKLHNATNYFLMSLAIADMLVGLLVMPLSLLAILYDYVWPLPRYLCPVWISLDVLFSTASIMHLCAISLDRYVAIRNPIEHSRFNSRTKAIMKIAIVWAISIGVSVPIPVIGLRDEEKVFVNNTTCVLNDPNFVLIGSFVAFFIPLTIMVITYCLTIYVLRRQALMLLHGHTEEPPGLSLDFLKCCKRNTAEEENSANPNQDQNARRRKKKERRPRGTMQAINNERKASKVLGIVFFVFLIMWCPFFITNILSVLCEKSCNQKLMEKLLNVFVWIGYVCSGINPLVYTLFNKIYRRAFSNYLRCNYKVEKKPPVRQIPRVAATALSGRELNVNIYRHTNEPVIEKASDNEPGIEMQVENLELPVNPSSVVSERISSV
Nature of the assay: Competitive radioligand binding, 5HT2C. As to conditions: CHO membranes, 3H-mesulergin 1 nM; read-out: pIC50 5HT2C (converted). The method, then: as §1, §2, §3

In assay [3] the target is T2, Alpha2B (Homo sapiens, UniProt P18089).
T2 construct: expressed in transfected cells; host or cells: CHO (membrane fraction)
T2 sequence (P18089 1-450): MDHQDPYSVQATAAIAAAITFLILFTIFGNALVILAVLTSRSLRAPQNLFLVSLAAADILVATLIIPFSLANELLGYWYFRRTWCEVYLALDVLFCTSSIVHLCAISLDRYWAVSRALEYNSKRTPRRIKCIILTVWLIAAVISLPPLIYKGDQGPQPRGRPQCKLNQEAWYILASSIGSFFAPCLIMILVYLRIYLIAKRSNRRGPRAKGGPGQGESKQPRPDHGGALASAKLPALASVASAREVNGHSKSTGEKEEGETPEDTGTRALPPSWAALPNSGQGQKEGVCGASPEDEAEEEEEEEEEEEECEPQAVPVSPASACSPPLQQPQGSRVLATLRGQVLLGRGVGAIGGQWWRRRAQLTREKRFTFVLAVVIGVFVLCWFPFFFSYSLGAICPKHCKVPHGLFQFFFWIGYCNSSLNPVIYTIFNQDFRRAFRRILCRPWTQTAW
Nature of the assay: Competitive radioligand binding, Alpha2B. As to conditions: CHO membranes, 3H-rauwolscine 1 nM; for IC50: read-out: pIC50 Alpha2B (converted). The method, then:
as §1, §2

Assay [4] addresses T3, 5HT3A/B (Homo sapiens, UniProt O95264+P46098).
T3 construct: expressed in transfected cells; host or cells: HEK293 (membrane fraction)
T3 sequence (P46098 24-478): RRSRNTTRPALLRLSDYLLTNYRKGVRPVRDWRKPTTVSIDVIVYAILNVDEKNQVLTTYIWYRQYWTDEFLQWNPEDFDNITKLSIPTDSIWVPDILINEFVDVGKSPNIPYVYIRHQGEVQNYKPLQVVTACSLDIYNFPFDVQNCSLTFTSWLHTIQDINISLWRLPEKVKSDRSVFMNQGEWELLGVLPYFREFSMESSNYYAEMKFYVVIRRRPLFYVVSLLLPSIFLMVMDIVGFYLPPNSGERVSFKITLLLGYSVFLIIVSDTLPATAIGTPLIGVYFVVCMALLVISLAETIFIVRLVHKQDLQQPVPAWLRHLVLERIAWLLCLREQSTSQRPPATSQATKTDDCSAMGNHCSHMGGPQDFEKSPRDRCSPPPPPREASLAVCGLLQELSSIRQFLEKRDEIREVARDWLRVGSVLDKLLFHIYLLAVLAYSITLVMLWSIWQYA
T3 sequence (O95264 22-441): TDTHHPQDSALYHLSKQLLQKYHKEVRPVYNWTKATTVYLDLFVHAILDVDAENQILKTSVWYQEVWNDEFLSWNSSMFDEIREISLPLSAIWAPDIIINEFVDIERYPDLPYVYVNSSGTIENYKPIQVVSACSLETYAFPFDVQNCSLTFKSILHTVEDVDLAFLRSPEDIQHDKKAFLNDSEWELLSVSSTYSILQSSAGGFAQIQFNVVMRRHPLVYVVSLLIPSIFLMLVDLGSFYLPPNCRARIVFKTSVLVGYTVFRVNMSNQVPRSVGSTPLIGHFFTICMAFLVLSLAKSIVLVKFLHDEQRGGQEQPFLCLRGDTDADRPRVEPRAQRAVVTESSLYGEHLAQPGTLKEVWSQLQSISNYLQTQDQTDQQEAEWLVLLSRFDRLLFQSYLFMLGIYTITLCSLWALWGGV
Nature of the assay: Competitive radioligand binding, 5HT3A/B. As to conditions: HEK293 membranes, 3H-GR65630 0.5 nM; for IC50: read-out: pIC50 5HT3A/B (converted). The method, then:
as §1, §2
Using in house developed software, a best-fit curve was fitted by a minimum sum of squares method to the plot of % inhibition vs. concentration of the test compound. From this, the pIC50 value (inhibitory concentration causing 50% displacement of specific binding) was determined, as well as an estimate of the slope of the plot (Hill coefficient).

5HT2B, sequence (P41595 whole entry): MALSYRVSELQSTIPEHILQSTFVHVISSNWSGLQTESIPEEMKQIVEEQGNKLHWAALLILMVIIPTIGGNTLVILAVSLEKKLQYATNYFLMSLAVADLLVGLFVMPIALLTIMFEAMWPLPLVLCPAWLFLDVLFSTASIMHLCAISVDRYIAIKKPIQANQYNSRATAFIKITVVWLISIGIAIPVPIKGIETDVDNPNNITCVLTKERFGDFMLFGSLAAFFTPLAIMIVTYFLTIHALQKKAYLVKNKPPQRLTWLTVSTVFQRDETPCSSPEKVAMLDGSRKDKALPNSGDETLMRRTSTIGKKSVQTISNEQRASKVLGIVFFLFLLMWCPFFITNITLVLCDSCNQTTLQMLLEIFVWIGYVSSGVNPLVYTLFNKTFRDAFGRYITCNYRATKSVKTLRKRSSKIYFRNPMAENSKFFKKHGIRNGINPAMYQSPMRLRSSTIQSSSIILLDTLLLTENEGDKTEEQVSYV

`COc1cc(N)c(Cl)cc1C(=O)N[C@@H]1CCN(CCCOc2ccc(F)cc2)C[C@H]1F` (racemic) [(±)-7, trans-4-amino-5-chloro-N-{3-fluoro-1-[3-(4-fluorophenoxy)-propyl]-piperidin-4-yl}-2-methoxybenzamide]: the IC50 in assay [1] is 107 nM; in assay [2] it was 1820 nM; in assay [3] it was 2510 nM; in assay [4] it was > 10000 nM.

`COc1cc(N)c(Cl)cc1C(=O)N[C@H]1CCN(CCCOc2ccc(F)cc2)C[C@H]1F` (racemic) [(±)-12, cis-4-amino-5-chloro-N-{3-fluoro-1-[3-(4-fluorophenoxy)-propyl]-piperidin-4-yl}-2-methoxybenzamide]: the IC50 was 66.1 nM in assay [1], 4370 nM in assay [2], 2510 nM in assay [3] and 6760 nM in assay [4].

In the case of `COc1cc(N)c(Cl)cc1C(=O)NC1CCN(CCCOc2ccc(F)cc2)CC1(F)F` (racemic) [(±)-17, 4-amino-5-chloro-N-{3,3-difluoro-1-[3-(4-fluorophenoxy)-propyl]-piperidin-4-yl}-2-methoxybenzamide], the IC50 was 13.8 nM in assay [1], 4680 nM in assay [2], > 10000 nM in assay [3] and > 10000 nM in assay [4].

As for `COc1cc(N)c(Cl)cc1C(=O)N[C@@H]1CCN(CCCOc2ccc(F)cc2)C[C@H]1F` (single isomer, unassigned) [(+)-7, trans-4-amino-5-chloro-N-{3-fluoro-1-[3-(4-fluorophenoxy)-propyl]-piperidin-4-yl}-2-methoxybenzamide], the IC50 was 129 nM in assay [1], 1230 nM in assay [2], 2630 nM in assay [3] and > 10000 nM in assay [4].

Regarding `COc1cc(N)c(Cl)cc1C(=O)N[C@H]1CCN(CCCOc2ccc(F)cc2)C[C@H]1F` (single isomer, unassigned) [(+)-12, cis-4-amino-5-chloro-N-{3-fluoro-1-[3-(4-fluorophenoxy)-propyl]-piperidin-4-yl}-2-methoxybenzamide], the IC50 is 148 nM in assay [1], 5010 nM in assay [2], 3390 nM in assay [3] and > 10000 nM in assay [4].

Turning to `COc1cc(N)c(Cl)cc1C(=O)N[C@@H]1CCN(CCCOc2ccc(F)cc2)C[C@H]1F` (single isomer, unassigned) [(−)-7, trans-4-amino-5-chloro-N-{3-fluoro-1-[3-(4-fluorophenoxy)-propyl]-piperidin-4-yl}-2-methoxybenzamide], the results for the IC50 in assay [1], in assay [2] and in assay [3] were 251 nM, 3720 nM and 6030 nM, respectively. The “pIC50 5HT3A/B” value in assay [4] is reported as <5.

Regarding `COc1cc(N)c(Cl)cc1C(=O)N[C@H]1CCN(CCCOc2ccc(F)cc2)C[C@H]1F` (single isomer, unassigned) [(−)-12, cis-4-amino-5-chloro-N-{3-fluoro-1-[3-(4-fluorophenoxy)-propyl]-piperidin-4-yl}-2-methoxybenzamide], the IC50 in assay [1] is 72.4 nM; in assay [2] it was 6610 nM; in assay [3], 5250 nM; in assay [4], 2750 nM.

As to `COc1cc(N)c(Cl)cc1C(=O)NC1CCN(CCCOc2ccc(F)cc2)CC1(F)F` (single isomer, unassigned) [Compound (−)-17, 4-amino-5-chloro-N-{3,3-difluoro-1-[3-(4-fluorophenoxy)-propyl]-piperidin-4-yl}-2-methoxybenzamide], the results for the IC50 in assay [1] and in assay [2] were 7.24 nM and 6610 nM, respectively. In assay [3], the “pIC50 Alpha2B” value is recorded as <5. Besides, the “pIC50 5HT3A/B” value in assay [4] is on record as <5.

As to `COc1cc(N)c(Cl)cc1C(=O)NC1CCN(CCCOc2ccc(F)cc2)CC1(F)F` (single isomer, unassigned; (+)) [(+)-17, 4-amino-5-chloro-N-{3,3-difluoro-1-[3-(4-fluorophenoxy)-propyl]-piperidin-4-yl}-2-methoxybenzamide], the IC50 in assay [1] is 51.3 nM; in assay [2], > 10000 nM; in assay [3], > 10000 nM; in assay [4], > 10000 nM.
